What all share (format): biochemical
In one assay the target is T1, recombinant PRL-1 (Homo sapiens, UniProt Q93096).
T1 construct: 6xHis (N, cleaved yes); made in house; host or cells: E. coli One Shot BL21 Star
T1 sequence (Q93096 1-173): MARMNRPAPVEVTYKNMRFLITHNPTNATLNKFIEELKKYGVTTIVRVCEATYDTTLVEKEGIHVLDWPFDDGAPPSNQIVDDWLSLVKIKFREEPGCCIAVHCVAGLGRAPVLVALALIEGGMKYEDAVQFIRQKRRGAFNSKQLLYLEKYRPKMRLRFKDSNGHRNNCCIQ
Briefly: In vitro phosphatase assay (DiFMUP hydrolysis), PRL-1. Also: test concentration or dose not given here.

Another assay has as its target T2, recombinant PRL-3 (Homo sapiens, UniProt O75365).
T2 construct: 6xHis (N, cleaved yes); made in house; host or cells: E. coli One Shot BL21 Star
Briefly: In vitro phosphatase assay (DiFMUP hydrolysis), PRL-3. Also: test concentration or dose not given here.

Another assay addresses T3, recombinant PRL-2 (Homo sapiens, UniProt Q12974).
T3 construct: 6xHis (N, cleaved yes); made in house; host or cells: E. coli One Shot BL21 Star
T3 sequence (Q12974 1-167): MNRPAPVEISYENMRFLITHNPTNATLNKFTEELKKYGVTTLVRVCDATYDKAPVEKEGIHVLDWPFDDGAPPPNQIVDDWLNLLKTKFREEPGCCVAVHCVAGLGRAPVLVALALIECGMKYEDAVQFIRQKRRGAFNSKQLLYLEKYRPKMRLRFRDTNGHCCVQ
Briefly: In vitro phosphatase assay (DiFMUP hydrolysis), PRL-2.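 Also: PRL-2 activity read as DiFMUP hydrolysis after 20 min at room temperature with drug, enzyme first pre-reduced at 4 °C for 20 min.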

Setting [1] is: FDA-approved drug screen, compared to DMSO.
Setting [2] is: FDA-approved drug screen, activity compared to DMSO.

Counter-ions that a name gives are not always drawn. Like-named read-outs stand apart in the source and are kept apart here.

T2 sequence (O75365 whole entry): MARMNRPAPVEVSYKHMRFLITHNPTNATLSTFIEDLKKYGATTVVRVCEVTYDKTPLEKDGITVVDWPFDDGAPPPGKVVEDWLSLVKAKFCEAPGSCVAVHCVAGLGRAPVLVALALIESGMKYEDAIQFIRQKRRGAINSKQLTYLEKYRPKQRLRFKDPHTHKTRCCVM

As to `CCN(CC)C(=O)N1CCN(C)CC1.O=C(O)CC(O)(CC(=O)O)C(=O)O` [Diethylcarbamazine (citrate)], on recombinant PRL-1 (setting [1]), the “% Phosphatase Activity (compared to DMSO) PRL-1” value turned out to be 92%. Also, at recombinant PRL-3 (setting [1]), the “% Phosphatase Activity (compared to DMSO) PRL-3” value was determined as 90%. For the same compound, the “% Phosphatase Activity (compared to DMSO) PRL-2” value on recombinant PRL-2 (setting [1]) came out at 101%.
For the compound `NC12CC3CC(CC(C3)C1)C2` [Amantadine HCl], the “% Phosphatase Activity (compared to DMSO) PRL-1” value on recombinant PRL-1 (setting [1]) came out at 117%. The “% Phosphatase Activity (compared to DMSO) PRL-3” value at recombinant PRL-3 (setting [1]) is given as 88%. Besides, the “% Phosphatase Activity (compared to DMSO) PRL-2” value on recombinant PRL-2 (setting [1]) is recorded as 127%.
Regarding `Clc1ccc(C(Cn2ccnc2)OCc2c(Cl)cccc2Cl)c(Cl)c1` (stereo not drawn) [Isoconazole nitrate], the “% Phosphatase Activity (compared to DMSO) PRL-1” value at recombinant PRL-1 (setting [1]) stood at 112%. In addition, on recombinant PRL-3 (setting [1]), the “% Phosphatase Activity (compared to DMSO) PRL-3” value stood at 89%. Moreover, the “% Phosphatase Activity (compared to DMSO) PRL-2” value at recombinant PRL-2 (setting [1]) was 110%.
Regarding Tyloxapol, on recombinant PRL-1 (setting [2]), the “% Phosphatase Activity (compared to DMSO) PRL-1” value turned out to be 89%. In addition, the “% Phosphatase Activity (compared to DMSO) PRL-3” value on recombinant PRL-3 (setting [2]) is listed as 90%. Also, the “% Phosphatase Activity (compared to DMSO) PRL-2” value at recombinant PRL-2 (setting [2]) is on record as 83%.
In the case of `O=C(c1ccccc1)c1ccc2n1CCC2C(=O)O` (stereo not drawn) [Ketorolac], the “% Phosphatase Activity (compared to DMSO) PRL-1” value at recombinant PRL-1 (setting [1]) came to 98%. For the same compound, the “% Phosphatase Activity (compared to DMSO) PRL-3” value on recombinant PRL-3 (setting [1]) is 78%. Further, the “% Phosphatase Activity (compared to DMSO) PRL-2” value on recombinant PRL-2 (setting [1]) is on record as 97%.
Taken in the same sequence, the figures for `Cl.NCC(=O)CCC(=O)O` [5-Aminolevulinic acid HCl] were 106%, 86% and 130%.
In the case of `Nc1cc(C(Cl)=C(Cl)Cl)c(S(N)(=O)=O)cc1S(N)(=O)=O` [Clorsulon], the “% Phosphatase Activity (compared to DMSO) PRL-1” value at recombinant PRL-1 (setting [1]) was found to be 98%. Also, the “% Phosphatase Activity (compared to DMSO) PRL-3” value on recombinant PRL-3 (setting [1]) was 92%. In addition, the “% Phosphatase Activity (compared to DMSO) PRL-2” value at recombinant PRL-2 (setting [1]) is reported as 115%.
`OCCOc1ccc(/C(=C(/CCCl)c2ccccc2)c2ccccc2)cc1` [Ospemifene]: the “% Phosphatase Activity (compared to DMSO) PRL-1” value at recombinant PRL-1 stood at 96%. The “% Phosphatase Activity (compared to DMSO) PRL-3” value at recombinant PRL-3 is 81%. At recombinant PRL-2, the “% Phosphatase Activity (compared to DMSO) PRL-2” value was 109%.
As to `CCn1c(=O)c(-c2cc[nH]n2)cc2c(C)nc(N)nc21` [SAR245409 (XL765)], the “% Phosphatase Activity (compared to DMSO) PRL-1” value at recombinant PRL-1 (setting [1]) stood at 89%. Moreover, the “% Phosphatase Activity (compared to DMSO) PRL-3” value on recombinant PRL-3 (setting [1]) turned out to be 74%. Moreover, the “% Phosphatase Activity (compared to DMSO) PRL-2” value on recombinant PRL-2 (setting [1]) was determined as 74%.
For the compound `O=C(O)c1cc(-c2ccc(F)cc2F)ccc1O` [Diflunisal], the “% Phosphatase Activity (compared to DMSO) PRL-1” value at recombinant PRL-1 (setting [1]) is 91%. The “% Phosphatase Activity (compared to DMSO) PRL-3” value at recombinant PRL-3 (setting [1]) was 85%. Besides, the “% Phosphatase Activity (compared to DMSO) PRL-2” value at recombinant PRL-2 (setting [1]) amounted to 87%.
With `CN1CCC[C@@H]1Cc1c[nH]c2ccc(CCS(=O)(=O)c3ccccc3)cc12` [Eletriptan HBr], the “% Phosphatase Activity (compared to DMSO) PRL-1” value on recombinant PRL-1 (setting [1]) came to 109%. The “% Phosphatase Activity (compared to DMSO) PRL-3” value at recombinant PRL-3 (setting [1]) is 92%. Also, the “% Phosphatase Activity (compared to DMSO) PRL-2” value at recombinant PRL-2 (setting [1]) turned out to be 121%.
The corresponding values for `CCc1cccc2c3c([nH]c12)C(CC)(CC(=O)O)OCC3` (stereo not drawn) [Etodolac] are 96%, 72% and 104%.
Consider `CCCc1cc(=O)[nH]c(=S)[nH]1` [Propylthiouracil], for which, on recombinant PRL-1, the “% Phosphatase Activity (compared to DMSO) PRL-1” value stood at 94%. The “% Phosphatase Activity (compared to DMSO) PRL-3” value at recombinant PRL-3 was found to be 91%. The “% Phosphatase Activity (compared to DMSO) PRL-2” value on recombinant PRL-2 stood at 93%.
In the case of `CC(=O)O[C@]1(C(C)=O)CC[C@H]2[C@@H]3C[C@H](C)C4=CC(=O)C=C[C@]4(C)[C@@]3(F)[C@@H](O)C[C@@]21C` [Fluorometholone Acetate], the “% Phosphatase Activity (compared to DMSO) PRL-1” value at recombinant PRL-1 (setting [1]) came to 91%. Further, the “% Phosphatase Activity (compared to DMSO) PRL-3” value on recombinant PRL-3 (setting [1]) was determined as 79%. Besides, the “% Phosphatase Activity (compared to DMSO) PRL-2” value on recombinant PRL-2 (setting [1]) is reported as 96%.
Consider `Cl.Cl.NCCc1c[nH]cn1` [Histamine 2HCl], for which the “% Phosphatase Activity (compared to DMSO) PRL-1” value at recombinant PRL-1 is given as 97%. The “% Phosphatase Activity (compared to DMSO) PRL-3” value on recombinant PRL-3 amounted to 71%. For the same compound, the “% Phosphatase Activity (compared to DMSO) PRL-2” value on recombinant PRL-2 is listed as 118%.
Regarding `CCOC(=O)C1=C(C)NC(C)=C(C(=O)OC)C1c1cccc([N+](=O)[O-])c1` (stereo not drawn) [Nitrendipine], the “% Phosphatase Activity (compared to DMSO) PRL-1” value at recombinant PRL-1 (setting [1]) was determined as 85%. The “% Phosphatase Activity (compared to DMSO) PRL-3” value at recombinant PRL-3 (setting [1]) was 68%. The “% Phosphatase Activity (compared to DMSO) PRL-2” value at recombinant PRL-2 (setting [1]) is 84%.
Regarding `CN1CCN(c2ccc3nc(-c4c(N)c5c(F)cccc5[nH]c4=O)[nH]c3c2)CC1` [Dovitinib (TKI-258, CHIR-258)], the “% Phosphatase Activity (compared to DMSO) PRL-1” value at recombinant PRL-1 (setting [1]) came to 87%. For the same compound, the “% Phosphatase Activity (compared to DMSO) PRL-3” value at recombinant PRL-3 (setting [1]) is listed as 74%. The “% Phosphatase Activity (compared to DMSO) PRL-2” value on recombinant PRL-2 (setting [1]) came out at 96%.
The corresponding values for `Cc1ncc([N+](=O)[O-])n1CCO` [Metronidazole] are 89%, 87% and 92%.
Taken in the same sequence, the figures for `CC(C)(Oc1ccc(CCNC(=O)c2ccc(Cl)cc2)cc1)C(=O)O` [Bezafibrate] were 123%, 90% and 119%.
The corresponding values for `Oc1c(Cl)cc(Cl)c2cccnc12` [Chloroxine] are 90%, 86% and 111%.
`CO[C@H]1/C=C/O[C@@]2(C)Oc3c(C)c(O)c4c(O)c(c5c(nc6cc(C)ccn65)c4c3C2=O)NC(=O)/C(C)=C\C=C\[C@H](C)[C@H](O)[C@@H](C)[C@@H](O)[C@@H](C)[C@H](OC(C)=O)[C@@H]1C` [Rifaximin]: the “% Phosphatase Activity (compared to DMSO) PRL-1” value on recombinant PRL-1 (setting [1]) was determined as 64%. Moreover, the “% Phosphatase Activity (compared to DMSO) PRL-3” value on recombinant PRL-3 (setting [1]) amounted to 79%. On recombinant PRL-2 (setting [1]), the “% Phosphatase Activity (compared to DMSO) PRL-2” value was found to be 60%.
The corresponding values for `CCC1(C)CC(=O)NC1=O` (stereo not drawn) [Ethosuximide] are 95%, 79% and 104%.
Consider `COc1cccc2c1C(=O)c1c(O)c3c(c(O)c1C2=O)C[C@@](O)(C(C)=O)C[C@@H]3O[C@H]1C[C@H](N)[C@H](O)[C@H](C)O1` [Daunorubicin HCl], for which, on recombinant PRL-1 (setting [1]), the “% Phosphatase Activity (compared to DMSO) PRL-1” value is on record as 83%. Moreover, the “% Phosphatase Activity (compared to DMSO) PRL-3” value at recombinant PRL-3 (setting [1]) stood at 82%. Further, the “% Phosphatase Activity (compared to DMSO) PRL-2” value at recombinant PRL-2 (setting [1]) worked out at 92%.
For the compound `CCCCOc1ccc(C(=O)CCN2CCCCC2)cc1` [Dyclonine HCl], the “% Phosphatase Activity (compared to DMSO) PRL-1” value at recombinant PRL-1 (setting [1]) is 91%. The “% Phosphatase Activity (compared to DMSO) PRL-3” value at recombinant PRL-3 (setting [1]) is 102%. In addition, the “% Phosphatase Activity (compared to DMSO) PRL-2” value at recombinant PRL-2 (setting [1]) stood at 103%.
The corresponding values for `N=C(N)N/N=C/c1c(Cl)cccc1Cl` [Guanabenz Acetate] are 94%, 68% and 108%.
Heparin sodium: the “% Phosphatase Activity (compared to DMSO) PRL-1” value at recombinant PRL-1 (setting [1]) came to 86%. The “% Phosphatase Activity (compared to DMSO) PRL-3” value at recombinant PRL-3 (setting [1]) is on record as 78%. Further, at recombinant PRL-2 (setting [1]), the “% Phosphatase Activity (compared to DMSO) PRL-2” value is 72%.
`CC(C)/N=c1\cc2n(-c3ccc(Cl)cc3)c3ccccc3nc-2cc1Nc1ccc(Cl)cc1` [Clofazimine]: the “% Phosphatase Activity (compared to DMSO) PRL-1” value on recombinant PRL-1 (setting [1]) came to 78%. Moreover, on recombinant PRL-3 (setting [1]), the “% Phosphatase Activity (compared to DMSO) PRL-3” value is 69%. The “% Phosphatase Activity (compared to DMSO) PRL-2” value at recombinant PRL-2 (setting [1]) was 96%.
With `CN(C)c1nc(N(C)C)nc(N(C)C)n1` [Altretamine], on recombinant PRL-1 (setting [1]), the “% Phosphatase Activity (compared to DMSO) PRL-1” value stood at 89%. At recombinant PRL-3 (setting [1]), the “% Phosphatase Activity (compared to DMSO) PRL-3” value is 71%. On recombinant PRL-2 (setting [1]), the “% Phosphatase Activity (compared to DMSO) PRL-2” value came to 89%.

(Values after article PMC8119466, “A screen of FDA-approved drugs identifies inhibitors of protein tyrosine phosphatase 4A3 (PTP4A3 or PRL-3)” (Scientific Reports, 2021).)
